Assay results as given in patent US20080275134A1, “Methods for Treatment of Retinal Degenerative Disease” (University of Washington, priority 2005, published 2008).
Entries after “also recorded” stand apart in the source; their conditions may differ.

How the values were obtained:
[1] = system: visual function (a-wave and b-wave); assay: single flash ERG responses of treated mice; assay type: in vivo, mouse
Experimental: A. Chromatographic separation of nonpolar retinoids from WT mouse eyes. Mice were gavaged with all-trans-Ret-NH2 24 hours prior to bleaching for 20 min at 150 cd·m^−2 W in the Ganzfeld chamber. Regeneration of 11-cis-retinal was allowed for 24 hours in the dark, and retinoids were extracted from the eye and separated by normal phase HPLC as described in Materials and Methods. The peaks were identified based on elution time and absorption spectra correspond to the following retinoids: 1, all-trans-retinyl esters; 2,2′, syn- and anti-11-cis-retinal oximes; 3, syn-all-trans-retinal oxime; 4,4′, syn- and anti-9-cis-retinal oximes; 5, all-trans-retinol. B. Changes of 11-cis-retinal oxime levels at increasing doses of all-trans-Ret-NH2 during 5 hours or 24 hours of dark adaptation. Square indicates the level of 11-cis-retinal oximes that was present in mice gavaged with vegetable oil without retinoids just after bleaching, and arrow indicates the increase of visual chromophore during 5 hours of dark adaptation. Triangles correspond to the level of 11-cis-retinal found in the mice gavaged with 50 mg/kg of 13-cis-RA. C and D. Single flash ERG responses of increasing intensity for all-trans-Ret-NH2 treated mice and control mice. Serial responses to increasing flash stimuli were obtained for all-trans-Ret-NH2 treated and control mice for selected intensities (C) and plotted as a function of a-wave and b-wave versus varying light intensities under dark-adapted conditions (D) before bleach and at 5 hours and 24 hours after bleach. The dark-adapted mice were bleached with intense constant illumination (150 cd·m^−2) for 20 min. […] SE bars are shown. […]
The conclusions derived from the analysis of retinoids of Ret-NH2-treated mice were supported by ERG analysis of visual functions. […] Next, the impact of all-trans-Ret-NH2 administration on the visual physiology of wild-type mice was evaluated in vivo with ERGs. […]

CRALBP = CRALBP (Homo sapiens, UniProt P12271); assay: analysis of retinoids bound to CRALBP isolated from the reaction mixture; assay type: binding
RPE65 = target: T1, RPE65 (Bos taurus, UniProt Q28175); assay: gel filtration of RPE proteins with anti-RPE65 immunoblot; assay type: binding, bovine; details: RPE65 found in fractions 23-34
T1 construct: RPE microsomes were solubilized with 10 mM DHPC; from tissue; host or cells: bovine RPE microsomes, DHPC extract
Experimental: The specificity of Ret-NH2 was further tested by biochemical assays. […] When the RPE microsomes were solubilized with DHPC, the isomerase activity decreased only slightly. Then [^3H]-Ret-NH2 was added to the RPE extract and loaded on a gel filtration column. Proteins were fractionated and eluted between fractions 18 and 60 (FIG. 3A), while the radioactivity was eluted in fractions 36-38. RPE65 was identified by immunoblotting in fractions 23-34 (FIG. 3B). The most abundant proteins in this fraction were identified by mass spectrometry and include glucose phosphate isomerase, D-glyceraldehyde-3-phosphate dehydrogenase, phosphoglycerate mutase, triose phosphate isomerase, enolase, annexin V, calbindin 2, and LRAT. Identification of less abundant proteins is in progress.
RPE microsomes were solubilized with 10 mM DHPC, incubated with 11,12-di[^3H]-all-trans-Ret-NH2 (1 μM), and loaded on a Superdex 200 column equilibrated with Tris/HCl buffer, pH 7.5, containing 4 mM DHPC. Proteins were eluted with a constant flow rate of 0.4 ml/min. The protein and radioactivity levels of 0.4 ml fractions were examined by SDS-PAGE and scintillation counting (A), and immunoblot with anti-RPE65 and anti-LRAT antibodies (B). The star indicates the fraction associated with maximum radioactivity.

CYP26A1 = target: T2, CYP26A1 (Homo sapiens, UniProt O43174); assay: oxidation in HEK-293 cells transfected with CYP26A1 cDNA; assay type: in vitro ADME
T2 construct: expressed in transfected cells; host or cells: HEK-293
T2 sequence (O43174 1-497): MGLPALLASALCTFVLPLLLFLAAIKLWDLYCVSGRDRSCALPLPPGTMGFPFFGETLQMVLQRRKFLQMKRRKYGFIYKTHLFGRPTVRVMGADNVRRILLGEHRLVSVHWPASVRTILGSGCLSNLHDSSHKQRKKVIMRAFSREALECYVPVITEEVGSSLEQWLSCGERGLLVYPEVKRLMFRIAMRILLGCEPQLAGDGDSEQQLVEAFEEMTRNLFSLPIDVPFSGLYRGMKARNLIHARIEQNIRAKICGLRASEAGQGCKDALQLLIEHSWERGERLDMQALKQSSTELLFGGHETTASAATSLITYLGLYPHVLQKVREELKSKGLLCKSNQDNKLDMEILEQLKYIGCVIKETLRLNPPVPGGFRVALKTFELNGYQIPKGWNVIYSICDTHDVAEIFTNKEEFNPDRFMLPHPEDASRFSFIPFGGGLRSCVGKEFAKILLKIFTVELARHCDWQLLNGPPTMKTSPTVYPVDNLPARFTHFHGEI
Excerpt: Next, the RA oxidation pathway was investigated. […] In addition to secretion, Ret-NH2 might be degraded first by deamination to all-trans-retinol/retinal, which was seen to increase in Ret-NH2 treated cells. […] These observations explain the long-lasting effect of RetNH2, as the amide is stored and hydrolyzed back to the free amine.

Chain of CRALBP (P12271 whole entry, species assumed): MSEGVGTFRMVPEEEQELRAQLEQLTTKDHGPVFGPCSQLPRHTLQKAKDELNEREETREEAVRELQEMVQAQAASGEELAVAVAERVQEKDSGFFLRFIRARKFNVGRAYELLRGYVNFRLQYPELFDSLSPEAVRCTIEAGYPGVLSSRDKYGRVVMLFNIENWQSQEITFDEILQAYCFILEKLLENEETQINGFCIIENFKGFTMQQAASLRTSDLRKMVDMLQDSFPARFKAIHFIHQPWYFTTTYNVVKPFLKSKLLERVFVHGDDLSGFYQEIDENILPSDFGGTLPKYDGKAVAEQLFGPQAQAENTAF
T1 sequence (Q28175 whole entry): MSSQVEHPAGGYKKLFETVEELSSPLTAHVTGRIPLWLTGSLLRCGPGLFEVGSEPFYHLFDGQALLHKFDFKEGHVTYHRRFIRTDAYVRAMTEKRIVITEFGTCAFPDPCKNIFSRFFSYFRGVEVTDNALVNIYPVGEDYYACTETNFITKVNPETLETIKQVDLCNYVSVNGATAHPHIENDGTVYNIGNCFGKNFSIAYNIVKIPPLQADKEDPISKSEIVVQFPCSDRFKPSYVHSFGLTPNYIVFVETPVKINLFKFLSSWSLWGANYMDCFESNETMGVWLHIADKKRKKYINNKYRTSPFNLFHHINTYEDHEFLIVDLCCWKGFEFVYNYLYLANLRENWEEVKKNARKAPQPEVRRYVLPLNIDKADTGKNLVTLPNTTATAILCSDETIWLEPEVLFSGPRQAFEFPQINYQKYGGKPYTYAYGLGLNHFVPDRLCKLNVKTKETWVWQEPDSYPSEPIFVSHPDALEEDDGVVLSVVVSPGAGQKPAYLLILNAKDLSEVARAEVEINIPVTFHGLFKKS

Row | SMILES | dark-adapted ERG a- and b-wave responses after bleach ([1]; 50 mg/kg single dose, 20 min bleach, 5 and 24 hours after, P<0.0001 vs control) | light-adapted (photopic) ERG responses, cone function ([1]; 50 mg/kg single dose, before and 5 and 24 hours after bleach, p>0.1 vs control) | dark-adapted ERG before bleach ([1]; 24 hours after 50 mg/kg gavage) | binding to CRALBP (CRALBP) | binding to RPE65 (RPE65) | oxidation by CYP26A1 (CYP26A1)
1 | CC1=C(/C=C/C(C)=C/C=C/C(C)=C/CN)C(C)(C)CCC1 [all-trans-Ret-NH2, all-trans-retinylamine] | significantly attenuated | attenuated weakly; also recorded: not affected by all-trans-Ret-NH2 to the same extent as rod function | normal waveforms and responses |  |  | 
2 | CC1=C(/C=C/C(C)=C/C=C/C(C)=C/CN)C(C)(C)CCC1 [Ret-NH2, Retinylamine] |  |  |  | does not bind | does not bind | no evidence of the presence of hydroxy- or oxo-Ret-NH2
